Patent US10857105B2, “Compounds and compositions for intracellular delivery of therapeutic agents” (ModernaTX, Inc., priority 2017, dated 2020)
Entries after “also recorded” stand apart in the source; their conditions may differ.

Tests used:
[1] = One month toxicology evaluation in cynomolgus monkeys (serum ALT, AST, C5b9, MCP-1); format: in vivo; settings: 1 mg/kg mRNA
Description: FIGS. 32A-32C are a series of graphs summarizing the results of a one month toxicology evaluation in rat and non-human primate. PBS (phosphate buffered saline) was used as a control. […] The serum levels were measured 24 post fifth dose (n=4). […] The serum levels were measured 24 post fifth dose (n=4).
FIGS. 33A and 33B are a pair of graphs summarizing the results of a one month toxicology evaluation in rats and non-human primates.
FIG. 38 is a graph showing mRNA levels in NHP after repeat dosing over the course of 29 days.

[2] = Protein expression with nanoparticle composition containing Compound 18 versus MC3 counterpart, 0.1 and 0.3 mpk; format: in vivo; settings: dose response between 0.1 and 0.3 mpk
mice = experiment: hEPO expression on repeat intravenous dosing of hEPO mRNA LNPs in mice; format: in vivo; settings: 0.5 mg/kg hEPO mRNA intravenously to mice
Description: Blood collection and analysis for hEPO. Blood was collected from mice or rats via the tail vein and hEPO concentrations were determined using a hEPO ELISA assay.
Repeat dosing of mRNA in an MC3-based LNP for a therapeutic indication would be expected to lead to accumulation of MC3 in tissues, based on the measured half-life. Therefore it was investigated whether the favorable single dose pharmacokinetics of compound 18 were maintained with weekly dosing. Clearance of MC3 and compound 18 from multiple mouse tissues was measured after dosing 0.05 mg/kg mRNA on day 1, 8 and 15 (FIG. 30A). Following dosing with MC3 LNPs, lipid was detected in liver, spleen, plasma, kidney, heart and lung; with liver and spleen containing the largest concentrations (FIG. 30A, for full panel of tissues see FIG. 35A). […] Compound 18 was also detected in plasma, lung, and kidney, but not in heart (FIG. 35A).

cynomolgus monkeys = experiment: Repeat dose hEPO expression in cynomolgus monkeys, once weekly for 5 weeks; format: in vivo, cynomolgus monkey; settings: 0.2 mg/kg hEPO mRNA, 60-minute intravenous infusion, n=4
Description: (§1) NHP studies: Nonhuman primate studies were conducted using naïve cynomolgus monkeys (cynos), 2-4 years old, weighing 2-6 kg. No treatment randomization or blinding methods were used for any of the animal studies. Sample sizes were determined by the resource equation method. For injection, mRNA-LNPs in phosphate buffered saline (PBS) were administered by 60-minute intravenous infusion using a temporary indwelling catheter inserted in a peripheral vein.
hEPO ELISA for NHP samples: Human Epo levels were measured using a human erythropoietin immunoassay. Cytokines levels were measured using a non-human primate cytokine kit.
The level of expression provided by LNPs of the disclosure in a repeat dose experiment in primates was evaluated. A 0.2 mg/kg dose of hEPO mRNA in a compound 18-based LNP was delivered via a 60-minute intravenous infusion to cynomolgus monkeys (n=4) once weekly for 5 weeks.

cynomolgus monkey = experiment: One-month toxicological evaluation with weekly dosing in cynomolgus monkey; format: in vivo
Description: as §1
Serum ALT and AST levels: Samples were analyzed using a Modular Analytics analyzer.
Serum C5b9 levels: C5b9 sample analysis was performed using an ELISA method. The kit used was Human C5b-9 ELISA Set and Reagent Set B from BD Bioscience. Study samples were analyzed in singlicate diluted 1/100.
bDNA for measurement of mRNA levels: mRNA sample analysis (bDNA method) was performed using the QuantiGene® 2.0 Reagent System kit from Affymetrix. Study samples were lysed prior to analysis using the QuantiGene Sample Processing Kit (Blood samples). Study samples were analyzed in duplicate diluted between 1/100 and 1/1250000.
Next, tolerability and safety of the compound 18-based LNPs in vivo was tested. A full toxicological evaluation of compound 18-based LNPs in both Sprague Dawley rat and cynomolgus monkey was performed using a standard one-month study with weekly dosing at three dose levels in each species. Rats were dosed at 0.05, 0.5, and 2 mg/kg and a non-human primates was dosed at 0.1, 0.3, and 1 mg/kg. LNP-related toxicities associated with MC3-based LNP systems are generally associated with immunological (cytokine and complement activation) and hepatic injury. […] FIGS. 32 and 33 highlight the day 30 levels of alanine transferase (ALT, FIG. 32A) and aspartate aminotransferase (AST, FIG. 32B), two indicators of liver damage.

ApoE knockout mice = experiment: Expression study in ApoE knockout mice; format: in vivo; settings: compound 18 based LNPs
LDLr knockout mice = experiment: Expression study in LDLr knockout mice; format: in vivo; settings: compound 18 based LNPs
[3] = Alanine aminotransferase (ALT) and aspartate aminotransferase (AST) in rat after intravenous administration; format: in vivo
Description: Table 19A summarizes the hEPO expression, IP-10 induction, liver and spleen levels, and alanine aminotransferase (ALT) and aspartate aminotransferase (AST) measured upon intravenous administration of formulations including Compounds 48, 49, and 50 to rat at 0.2 and 2 mpk and hEPO mRNA. hEPO concentrations were measured 6 hours after administration, while cytokine induction and liver and spleen levels were measured 48 hours after administration. hEPO and IP-10 concentrations are presented in pg/ml, while liver levels are provided in ng/g. ALT and AST levels are presented in international units.

female CD-1 mice = experiment: Luciferase expression after subcutaneous administration of lipid/mRNA formulations (whole body BLI); format: in vivo; settings: 0.5 mpk
Description: The effect of the lipids of the disclosure on protein expression upon subcutaneous administration was studied. Formulations containing lipids of the disclosure and an mRNA expressing luciferase or hEPO were administered subcutaneously to female CD-1 mice at 0.5 mpk. Expression levels were obtained via whole body luminescent imaging (BLI) at 3, 6 and 24 hours after injection and expression levels in liver, spleen and at the injection site were evaluated ex vivo after 24 hours. […] See also Tables 35 and 36, and FIGS. 19 and 27.
Table 35 summarizes the luciferase expression levels using various nanoparticle compositions of the disclosure, and the luciferase expression levels using various nanoparticle compositions 6f the disclosure as compared to the luciferase expression level using an MC3 formulation after subcutaneous administration, as described above.

[4] = pKa / apparent pKa of nanoparticle compositions; settings: Table 1B; formulated with hEPO mRNA
[5] = 60 min infusion, dosed weekly, after fifth dose (n=4)

Structure (SMILES) | Serum alanine aminotransferase levels [1, 5] | Serum aspartate aminotransferase levels [1, 5] | MCP-1 serum concentration ([1]; day 1 and day 29 (n=4)) | 0.3 mpk AUC relative to 0.1 mpk dose AUC [2] | hEPO expression on repeat dosing (mice) | hEPO exposure over repeat dosing (cynomolgus monkeys) | monocyte chemo-attractive protein (MCP-1) (cynomolgus monkey) | ALT and AST levels, day 30 (cynomolgus monkey; 1 mg/kg dose) | circulating mRNA levels after each dose (cynomolgus monkey; bDNA) | toxicological findings (cynomolgus monkey; weekly dosing one month, 0.1, 0.3 and 1 mg/kg) | expression in ApoE knockout mice (ApoE knockout mice) | expression in LDLr knockout mice (LDLr knockout mice) | ALT ([3]; intravenous 0.2 mpk) | AST ([3]; intravenous 0.2 mpk) | ALT ([3]; intravenous 2 mpk) | AST ([3]; intravenous 2 mpk) | Lipid/MC3 AUC ratio (luciferase) (female CD-1 mice) | Luciferase expression AUC (female CD-1 mice; BLI at 3, 6 and 24 hours) | Apparent pKa [4]
CCCCCCCCCOC(=O)CCCCCCCN(CCO)CCCCCCCC(=O)OC(CCCCCCCC)CCCCCCCC [Compound 18, Heptadecan-9-yl 8-((2-hydroxyethyl)(8-(nonyloxy)-8-oxooctyl)amino)octanoate] | No statistical difference between PBS pre-dose and day 30 levels | No statistical difference between PBS pre-dose and day 30 levels | no statistical difference between PBS and Compound 18 at any other timepoint | about three times | Consistent levels of expression | Efficient expression; also recorded: Consistent exposure | slight variation above baseline | at the same level as the control | consistent exposures | minimal findings at all dose levels | almost complete loss in expression | almost complete loss in expression | – | – | – | – | – | – | –
CCCCCC=CCC=CCCCCCCCCC(CCCCCCCCC=CCC=CCCCCC)OC(=O)CCCN(C)C (stereo not shown) [MC3, heptatriaconta-6,9,28,31-tetraen-19-yl 4-(dimethylamino)butanoate, reference compound] | – | – | – | – | – | – | – | – | – | – | – | – | 63.6 international units | 134.8 international units | 79.6 international units | 139.0 international units | 1 | 1.7127E+10 (p/s)*h | 6.35
